Laboratory results taken from patent publication US9248163B2, “Insulin-like growth factor binding protein 7 for treatment of cancer” (University of Massachusetts, priority 2007, dated 2016).

Experiments:
[1] = system: primary melanocytes and SK-MEL-28 melanoma cells; experiment: Quantitative real-time RT-PCR of the identified genes after rIGFBP7 addition; assay type: cell-based, human
Experimental: Total RNA was isolated using TRIZOL™ (Invitrogen) 7 days after retroviral transduction and puromycin selection. Reverse transcription was performed using SuperScript™ II Reverse Transcriptase (Invitrogen) as per the manufacturer's instructions, followed by quantitative real-time PCR using Platinum SYBR™ Green qPCR SuperMix-UDG with Rox (Invitrogen).
To understand the basis of this differential response, expression of the 17 identified genes was analyzed in primary melanocytes and BRAFV600E-positive SK-MEL-28 melanoma cells. […] PEA15, a known regulator of BRAF-MEK-ERK signaling (Formstecher et al., 2001, Dev. Cell, 1:239-250), is required for senescence (see FIG. 1F). Thus, the lack of PEA15 induction in IGFBP7-treated SK-MEL-28 cells can explain their failure to undergo senescence.

[2] = system: SK-MEL-31 (wild type BRAF) tumors; experiment: Tumor formation assay, SK-MEL-31 xenograft in nude mice; assay type: in vivo, athymic Balb/c (nu/nu) mice
Experimental: (§1) 5×10^6 SK-MEL-28 or SK-MEL-31 cells were suspended in 100 μl of serum-free DMEM and injected subcutaneously into the right flank of athymic Balb/c (nu/nu) mice (Taconic). Three, six, and nine days later, the mice were injected at the tumor site with either 20 μg of rIGBP7 in a total volume of 100 μl or, as a control, PBS. Tumor dimensions were measured every three days and tumor volume was calculated using the formula π/6×(length)×(width)^2. For the systemic administration experiments, 5×10^6 SK-MEL-28 or SK-MEL-31 cells were injected into the flanks of nude mice and when tumors reached a size of 100 mm3, 100 μg rIGFBP7 in a total volume of 100 μl was delivered by tail vein injection at days 6, 9, and 12. Tumor dimensions were measured every three days. Animal experiments were performed in accordance with the Institutional Animal Care and Use Committee (IACUC) guidelines.

[3] = system: SK-MEL-28 (BRAFV600E-positive) tumors; experiment: Tumor formation assay, SK-MEL-28 xenograft in nude mice; assay type: in vivo, athymic Balb/c (nu/nu) mice
Experimental: as §1

[4] = system: NCI 60 panel of human cancer cell lines; experiment: Apoptosis (Annexin V-PE) in the NCI 60 panel of human cancer cell lines; assay type: cell-based
Experimental: The ability of IGFBP7 to induce apoptosis was assessed in the NCI 60 panel of human cancer cell lines, which were obtained from the National Cancer Institute (NCI). The panel includes cell lines corresponding to breast (MDA-MB-231, HS 578T, BT-549, T47-D, MCF7), ovarian (NCI-ADR-RES, OVCAR-3, OVCAR-5, OVCAR-8, OVCAR-4, SK-OV-3, IGROV1), prostate (DU-145, PC-3), renal (TK-10, CAKI-1, A496, ACHN, RXF-393, 786-O, SN12C, UO-31), non-small cell lung (NCI-H460, HOP-62, A549-ATCC, NCI-H226, EKVX, NCI-H322M, HOP-92, NCI-H522), central nervous system (CNS) (SF-295, SF-268, SF-539, SNB-19, SNB-75, U251), colon (HCT-15, SW-620, COLO205, HT29, HCC-2998, HCT-116, SM-12), melanoma (SK-MEL-28, SK-M2L-2, LOX IMV1, M14, MALM-3M, SK-MEL-5, UACC-257, UACC-62, MDA-MB-435), and hematopoietic (CCRF-CEM, K-562, MOLT-4, SR, RPMI-8226) cancers. These cell lines have been extensively characterized and their mutational status for a number of human cancer genes, including BRAF and RAS (e.g., NRAS, KRAS, or HRAS), is known (see the World Wide Web at discover.nci.nih.gov/cellminer/mutationGeneLoad.do).
rIGFBP7 was expressed and purified as described above. To monitor apoptosis following rIGFBP7 treatment, 5×10^5 cells were treated with rIGFBP7 (10 μg/ml) for 24 hours and stained for Annexin V-PE. The results are shown in FIG. 11A. rIGFBP7 induced apoptosis in 11/11 (100%) of the cell lines that contained a BRAF mutation and 8/13 (61.5%) of the cell lines that contained a RAS mutation. One cell line contained both a BRAF and a RAS mutation, and this cell line was susceptible to rIGFBP7-mediated apoptosis.

[5] = system: human melanoma cell lines; experiment: Apoptosis assay (Annexin V-PE) in melanoma cells; assay type: cell-based
Experimental: PFF fibroblasts or melanocytes or shRNA knockdown derivatives (5×10^5 cells) were infected with BRAFV600E-expressing retrovirus, and 4 days later the total cell population was stained for Annexin V-PE (BD Biosciences). To monitor apoptosis in melanoma cells following rIGFBP7 treatment, 5×10^5 cells were treated with rIGFBP7 (10 μg/ml) for 24 hours and stained for Annexin V-PE.
Finally, it was determined whether apoptosis was dependent upon the continual presence of rIGFBP7 or was irreversible following transient exposure to rIGFBP7. SK-MEL-28 cells were incubated with rIGFBP7 for various lengths of time, following which the cells were washed and cultured in medium lacking rIGFBP7, and apoptosis was quantitated after 24 hours. The results, shown in FIG. 3H, indicate that following 6 hours of incubation with rIGFBP7, the cells were irreversibly committed to apoptosis, which occurred even following removal of rIGFBP7.

[6] = injected at the tumor site, 20 μg, days 3, 6 and 9
[7] = systemic, 100 μg by tail vein injection at days 6, 9 and 12

Substance: rIGFBP7: purified recombinant human IGFBP7, C-terminal Flag-tagged, from baculovirus-infected Sf9 insect cells
- upregulation of IGFBP7 and PEA15 ([1]; SK-MEL-28 cells): neither IGFBP7 nor PEA15 were upregulated
- induction of the seven BRAFV600E-upregulated genes ([1]; melanocytes, IGFBP7 being the exception): six of the seven genes were induced
- BNIP3L upregulation ([1]; primary melanocytes): only modestly upregulated
- tumor growth [2, 6]: no effect
- tumor growth [2, 7]: unaffected
- tumor growth [3, 6]: substantially suppressed growth
- TUNEL labeling of tumors ([3]; mice treated with rIGFBP7): positive
- tumor growth [3, 7]: completely suppressed growth
- suppression of tumor growth, dose dependence ([3]; systemic, 2, 20, 50, 100 or 250 μg, tumor volume at day 21): dose-dependent
- adverse effects ([3]; systemic, concentrations higher than required for inhibition of tumor growth): without apparent adverse effects
- cell lines in which apoptosis was induced ([4]; cell lines that contained a BRAF mutation (11/11), 10 μg/ml, 24 hours): 100%
- cell lines in which apoptosis was induced ([4]; cell lines that contained a RAS mutation (8/13), 10 μg/ml, 24 hours): 61.5%
- cell lines susceptible to apoptosis ([4]; cell lines without a BRAF or RAS mutation (4/34), 10 μg/ml, 24 hours): 11.8%
- susceptibility to rIGFBP7-mediated apoptosis ([4]; one cell line with both a BRAF and a RAS mutation): susceptible
- incubation time after which cells were irreversibly committed to apoptosis ([5]; SK-MEL-28 cells, washed, apoptosis quantitated after 24 hours): 6 h
- surviving senescent cells ([5]; melanoma cell lines with activating BRAF mutation): undetectable
- apoptosis ([5]; melanoma cell lines with activating BRAF mutation, 10 μg/ml, 24 hours): strongly induced apoptosis
